The text below walks through data of the METLIN SMRT retention time set (Domingo-Almenara et al. 2019).

This data set can be described thus: gradient 5% acetonitrile 3 min, to 50% in 2 min, to 85% in 15 min, held 3 min, 100 µL/min. The conditions noted are these: column: Zorbax Extend-C18 2.1 x 50 mm; eluents: water / acetonitrile, 0.1% formic acid. Put shortly: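 Data were gathered over 3 months by HPLC coupled to a quadrupole time-of-flight mass spectrometer, operated in positive and negative ionization mode. Mixtures of ~100 pure standards ran on a Zorbax Extend-C18 column (2.1 × 50 mm, 1.8 μm) at 100 μL/min, with water and acetonitrile each containing 0.1% formic acid and dead and dwell volumes of 40 μL and 900 μL. Retention time was read from adduct peaks picked by computer and checked manually.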
Consider `COc1ccc(OC)c(S(=O)(=O)N2CCCC(C(=O)NCc3ccncc3)C2)c1` (configuration not stated), for which the RP-LC retention time was found to be 604 s.

In turn, `Cc1[nH]c(C)c(S(=O)(=O)N2CCC(C(=O)NC3CC3)CC2)c1C(=O)N1CCCCC1` displayed an RP-LC retention time of 630 s.

Compound `Cn1ncc2c(N3CCSCC3)nc(C(=O)N3CCOCC3)nc21` showed an RP-LC retention time of 635 s.

For the compound `Cc1ccc(Sc2nccnc2N2CCCC(C(=O)NCc3ccc4c(c3)OCO4)C2)cc1` (configuration not stated), the RP-LC retention time turned out to be 1060 s.

`CC(C)CNC(=O)CN1CCN(Cc2ccc(F)cc2Cl)C1=O`: the RP-LC retention time was 790 s.

`COc1ccc(OCc2noc(CNS(=O)(=O)Cc3ccccc3)n2)cc1` gave an RP-LC retention time of 824 s.

For the compound `CN1C2CC(OC(=O)C(CO)c3ccccc3)CC1C(O)C2` (configuration not stated), the RP-LC retention time is 586 s.

Consider `O=S(=O)(Nc1ccncc1)c1cccc(C(F)(F)F)c1`, for which the RP-LC retention time is 591 s.

For the compound `CN(C)c1ccc(CN2CCc3nc(N4CCN(c5ccccc5F)CC4)ncc3C2)cc1`, the RP-LC retention time came out at 807 s.

For the compound `CC(C(=O)N1Cc2c(C(=O)NC3CC3)nn(C)c2C1)c1ccccc1` (configuration not stated), the RP-LC retention time worked out at 708 s.

Consider `CC1CCCN(c2ccn3c(=O)n(CC(=O)Nc4cccc(Cl)c4)nc3n2)C1` (configuration not stated), for which the RP-LC retention time is 835 s.

As to `Cc1cc(C(N)=O)c2cc(F)ccc2n1`, the RP-LC retention time was 544 s.

The compound `CC1CCCN(C(=O)c2ccc(CN3CCN(Cc4ccc(F)cc4)C(=O)C3=O)cc2)C1` (configuration not stated) yielded an RP-LC retention time of 788 s.

As for `O=C(CN1CCc2ccccc2C1C(=O)N1CCCCC1)NCc1cccc(Cl)c1` (configuration not stated), the RP-LC retention time came out at 913 s.

For the compound `COC(=O)c1ccc2c(=O)n(-c3ccc(F)c(Cl)c3)c(N3CCOCC3)nc2c1`, the RP-LC retention time worked out at 967 s.

In the case of `O=C(NCCc1csc(C2CCCN(C(=O)C3CCCC3)C2)n1)C1CCC1` (configuration not stated), the RP-LC retention time stood at 718 s.

`Cc1ccc(S(=O)(=O)N2CCN(c3cnn4c(C)nnc4c3)CC2)cc1`: the RP-LC retention time worked out at 679 s.

As to `Cc1ccc(-c2csc(NC(=O)CCCOc3ccc(Cl)cc3Cl)n2)cc1`, the RP-LC retention time was determined as 1290 s.

In turn, `COc1cccc(CNC(=O)Cn2c(=O)c3cc(-c4cccs4)nn3c3ncccc32)c1` returned an RP-LC retention time of 835 s.

For `CCC1CCCCN1c1cc(SCC(=O)Nc2ccc(N(C)C)cc2)ncn1` (configuration not stated), the RP-LC retention time was 709 s.

For the compound `CC(=O)c1cccc(NC(=O)Cn2ccc3ccc(-c4nnc(C)o4)cc32)c1`, the RP-LC retention time worked out at 762 s.

Turning to `O=C(c1nnc(-c2csc(S(=O)(=O)N3CCN(c4ccccn4)CC3)c2)o1)N1CCCCC1`, the RP-LC retention time came to 709 s.

`CCSc1cccc(C(=O)N2CC(=O)Nc3ccccc32)c1` showed an RP-LC retention time of 756 s.

In turn, `CCn1cc(-c2nc(C(=O)NCc3cccc(F)c3)cs2)c2cccnc21` showed an RP-LC retention time of 983 s.

Turning to `CCn1cc(C2=CCN(S(=O)(=O)c3cccc(Cl)c3)CC2)c2cccnc21`, the RP-LC retention time is 1070 s.

`O=[N+]([O-])c1cccc(/C=C/c2ccccn2)c1` showed an RP-LC retention time of 747 s.

In the case of `CC(=O)N[C@@H]1CN(C(=O)c2ccc3ncccc3c2)C[C@H]1CO`, the RP-LC retention time came out at 536 s.

`CCn1ccc2c(cc(C(=O)Nc3ccc(C)cc3C)n2C)c1=O` gave an RP-LC retention time of 753 s.

`Cc1noc(C2CN(C(=O)Nc3ccc(C)c(F)c3)CC23CCOCC3)n1` (configuration not stated): the RP-LC retention time is 776 s.

The compound `COC1=CC(=O)O[C@H](/C=C/c2ccc3c(c2)OCO3)C1` returned an RP-LC retention time of 809 s.

The compound `O=C(NCC(c1cccnc1)c1c[nH]c2ccccc12)Nc1ccc(Br)cc1F` (configuration not stated) came in with an RP-LC retention time of 716 s.

The compound `O=C(NCC1CCCO1)C1c2ccccc2C(=O)N1Cc1ccc2c(c1)OCO2` (configuration not stated) showed an RP-LC retention time of 728 s.

Turning to `CSc1cccc(NC(=O)C2CCC(=O)N2S(=O)(=O)c2ccc(C)cc2)c1` (configuration not stated), the RP-LC retention time was found to be 954 s.

Turning to `Cc1ccc(-c2ccnc(SCC(=O)Nc3ccccc3C(F)(F)F)n2)cc1C`, the RP-LC retention time was 1120 s.

Turning to `CCN1CCN(c2cc(C)c3cc(NC(=O)C(c4ccccc4)C4CCCC4)ccc3n2)CC1` (configuration not stated), the RP-LC retention time was determined as 646 s.

`CCc1ccc(OCC(=O)Nc2nnc(SCc3nnc(-c4ccccc4C)o3)s2)cc1` came in with an RP-LC retention time of 1070 s.

The compound `Cc1ccc2ncn(C3CCN(C(=O)Nc4ccc(C)c(C)c4)CC3)c(=O)c2c1` came in with an RP-LC retention time of 799 s.

`COc1ccc2[nH]cc(CCNC(=O)c3cc(Cl)ccc3OC)c2c1` showed an RP-LC retention time of 883 s.

The compound `Nc1ccc(S(=O)(=O)N2CCCCC2c2cccnc2)cc1` (configuration not stated) yielded an RP-LC retention time of 555 s.

On to `CCCNc1cc(N2CCC(CCC(=O)NCC3CC3)CC2)ncn1`, for which the RP-LC retention time was 560 s.

Consider `COc1ccccc1C1CC(c2ccccc2NS(C)(=O)=O)=NN1C(=O)c1ccco1` (configuration not stated), for which the RP-LC retention time is 902 s.

Compound `CCOC(=O)c1sc(NC(=O)c2cccs2)nc1C` came in with an RP-LC retention time of 892 s.

Regarding `O=C(CSC1CCc2ccccc2NC1=O)Nc1ccccc1` (configuration not stated), the RP-LC retention time came to 777 s.

Consider `CCn1nccc1C(=O)N1CCN(c2cc(-c3ccc(Cl)cc3)[nH]n2)CC1`, for which the RP-LC retention time is 781 s.

`O=C(Nc1cnc(N2CCCCC2)nc1)c1cccs1`: the RP-LC retention time came out at 842 s.

`O=C(NCc1ccco1)c1nc2ccccn2c1-c1ccsc1` displayed an RP-LC retention time of 761 s.

As for `CC1CCN(C(=O)c2cc3c(s2)CCC(C(=O)N2CCN(C)CC2)C3)CC1` (configuration not stated), the RP-LC retention time is 575 s.

Compound `Cc1ccc(Cl)cc1NCc1nnc2n1CCCCC2` displayed an RP-LC retention time of 739 s.

In turn, `O=C(C1CCCO1)N1CCn2c(nnc2-c2ccccc2)C1` (configuration not stated) gave an RP-LC retention time of 608 s.

The compound `Cc1cccc(-c2csc3c(=O)n(Cc4ccccn4)cnc23)c1` had an RP-LC retention time of 877 s.

In turn, `Cc1ccc(/C=C/S(=O)(=O)N2CC(c3nc(-c4ncccn4)no3)C2)cc1` registered an RP-LC retention time of 729 s.

`CS(=O)(=O)N1CCN(CCNC(=O)Nc2cccc(C(F)(F)F)c2)CC1` showed an RP-LC retention time of 576 s.

`COc1cccc(Nc2c(-c3ccc(Cl)cc3)nc3cnccn23)c1`: the RP-LC retention time stood at 961 s.

For `O=C(CSc1ccc2nnc(-c3cccnc3)n2n1)NC1CCCCC1`, the RP-LC retention time was found to be 592 s.

For `COC(=O)c1ccc(C(=O)Nc2nc3c(s2)CCc2ccccc2-3)cc1`, the RP-LC retention time turned out to be 1120 s.

Turning to `Cc1cc2c(=O)n(CC(=O)N3CCCc4ccccc43)c3cccnc3n2n1`, the RP-LC retention time turned out to be 767 s.

Compound `COC1CCC12CCN(C(=O)c1cnccn1)CC2` (configuration not stated) returned an RP-LC retention time of 657 s.

Take `CC(NC(=O)C1CCN(c2cc(N3CCCC3)ncn2)CC1)c1ccccc1` (configuration not stated): the RP-LC retention time was 644 s.

Compound `O=C1CCC2(CNC(=O)NCCc3ccccc3)CCCC=C2N1` (configuration not stated) showed an RP-LC retention time of 623 s.

Take `Cc1ncoc1C(=O)N(C)C1CCc2nn(CC3CC3)c(=O)n2CC1` (configuration not stated): the RP-LC retention time was 594 s.

In turn, `CC(C)CC(C(=O)N1CCOCC1)N1CC2=C(C1=O)C(c1ccccc1Cl)NC(=O)N2C` (configuration not stated) showed an RP-LC retention time of 894 s.

`Cn1c(N2CCCC(C(=O)NCC3CCN(CCc4cccs4)CC3)C2)cc(=O)n(C)c1=O` (configuration not stated) showed an RP-LC retention time of 589 s.

Regarding `CN1C(=O)C2(CCN(C(=O)Nc3ccc4c(c3)OCO4)C2)c2ccccc21` (configuration not stated), the RP-LC retention time was determined as 752 s.

For `O=C1N(c2cccc(F)c2)C(c2ccccc2)C12CCNCC2` (configuration not stated), the RP-LC retention time stood at 669 s.

Take `CC(C)Cn1c(=O)c(C(=O)NCCc2ccccn2)nc2cccnc21`: the RP-LC retention time was 604 s.

Consider `O=C(c1cc2c(=O)n(Cc3ccccc3)ccc2s1)N1CCCCCC1`, for which the RP-LC retention time was 876 s.

Consider `COc1ccc2c(c1)-c1nc(NC(=O)c3ccc(OC)c(Br)c3)sc1CC2`, for which the RP-LC retention time was determined as 1220 s.

For `CC1=NOC(C)(CNC(=O)NC2CCCCC2)C1` (configuration not stated), the RP-LC retention time was 659 s.

Regarding `Cc1nnsc1C(=O)N1CCC(c2nnc(-c3ccco3)o2)CC1`, the RP-LC retention time worked out at 617 s.

Compound `COc1ccc(-c2noc(CN3C(=O)COc4ccccc43)n2)cc1` had an RP-LC retention time of 953 s.

`CCN(CC)C(=O)CSc1nnc(-c2ccc3c(c2)OCCCO3)n1C(C)C` had an RP-LC retention time of 770 s.

Consider `Cn1nccc1C(=O)N1CCCC1c1cccc(F)c1` (configuration not stated), for which the RP-LC retention time was determined as 758 s.

For `CCc1nnc(-c2ccc3ccn(CC(=O)Nc4cc(C)ccn4)c3c2)o1`, the RP-LC retention time worked out at 705 s.

The compound `COc1ccc(SCCCC(=O)Nc2cccc(C)c2C)cc1` returned an RP-LC retention time of 906 s.

Take `C=CCNC(=O)COc1cccc2c(=O)n(CC=C)ccc12`: the RP-LC retention time was determined as 700 s.

As to `CNC(=O)C1CCCN(c2nc3ncn(CC(=O)NC4CCCC4)c(=O)c3s2)C1` (configuration not stated), the RP-LC retention time amounted to 605 s.

Consider `c1ccc(N2CCN(Cc3cccn3-c3nnc(N4CCCCC4)s3)CC2)nc1`, for which the RP-LC retention time was found to be 627 s.

On to `CCc1nc(-n2cccc2)sc1C(=O)Nc1ccc(C)cc1`, for which the RP-LC retention time is 949 s.

`CCN1CCN(c2ncc3c(n2)CCN(Cc2ccc(OC)c(OC)c2OC)C3)CC1` returned an RP-LC retention time of 547 s.

As to `COc1ccc(-c2nc3cnccn3c2Nc2ccc(C(=O)NCCN(C)C)cc2)cc1`, the RP-LC retention time is 586 s.

As to `CCC(C)NC(=O)C1CCN(S(=O)(=O)c2cn(C(C)C)cn2)CC1` (configuration not stated), the RP-LC retention time worked out at 669 s.

As for `COC(=O)c1cnc2nc(C)ccc2c1Nc1ccc(Br)cc1C`, the RP-LC retention time was 732 s.
